Series [1] has as its system HL-60 cells. In words: Cell viability / acute cytotoxicity in HL-60 cells. The class given is cell-based, human. An excerpt: This reduced toxicity provides excellent selectivity and potency as an antiviral agent.
For series [2], the system named is enzyme which hydrolyzes S-adenosyl-L-homocysteine (AdoHcy). The conditions noted are these: background; cited from earlier work.
For series [3] the following is noted: background; cited from earlier work.
The conditions of series [4]: background; cited from earlier work. This is another data set of the same source.
For series [5], the system named is Dengue virus Type II, strain 16681. The experiment in a line: Antiviral effect, Dengue II in Vero E6 cells (plaque reduction). The conditions noted are these: Vero C1008, read-out: % PFU Reduction, Dengue II. Type of series: cell-based.
The subject of series [6] is Polio Type III virus (Sabin oral vaccine strain). The experiment in a line: microbe, parasite or virus in culture. The class given is cell-based.
The subject of series [7] is Coxsackie A9 virus, strain 1861. The experiment in a line: Antiviral effect, Coxsackie A9 in Viro E6 cells (plaque reduction). Type of series: cell-based. Particulars: read-out: % PFU Reduction, Coxsackie 9A.
In series [8] the test system is cells used to support virus growth. The experiment in a line: Toxicity to cells used to support virus growth. Type of series: cell-based. Particulars: listed concentrations 50, 25, 5 μg/ml. An excerpt: ^(a) Concentrations listed were nontoxic to cells used to support
^(a) Concentrations listed were noncytotoxic to cells used to support

The target in series [9] is hamster liver adenosine-homocystine (AdoHyc) hydrolase (Mesocricetus auratus, UniProt A0A1U7RAJ1). The experiment in a line: Inhibition of hamster liver AdoHcy hydrolase.
Series [10] concerns Dengue virus Type II, strain 16681. In words: Antiviral effect, Dengue Type II in BHK21 cells (plaque reduction). The class given is cell-based. The conditions noted are these: for inhibition at 5 µg/mL / inhibition at 25 µg/mL / inhibition at 50 µg/mL: Dengue virus, BHK-21, BHK21 cells, read-out: % PFU Reduction, Dengue Type II; for inhibition at 5 µg/mL: 5 μg/ml; for inhibition at 25 µg/mL: 25 μg/ml; for inhibition at 50 µg/mL: 50 μg/ml.

The test system of series [11] is viruses. The experiment in a line: General antiviral evaluation. Type of series: cell-based. The conditions noted are these: compared with CPE-C.
For series [12], the system named is H.Ep.-2 cells. The conditions noted are these: background; cited from earlier work.
For series [13], the system named is L1210 cells. The conditions noted are these: background; cited from earlier work.
In series [14] the test system is L1210 leukemia. The conditions noted are these: background; cited from earlier work.
For series [15], the system named is quiescent normal cells. Particulars: subtoxic concentrations; cited from earlier work.
Series [16] deals with malignant cell lines. The conditions noted are these: subtoxic concentrations; cited from earlier work.
In series [17] the test system is adenosine deaminase. The conditions noted are these: background; cited from earlier work.
In series [18] the test system is Herpes Simplex Type II virus, strain 28382. In words: Antiviral effect, Herpes Simplex II in mink lung cells (plaque reduction). The class given is cell-based. Particulars: for inhibition at 5 µg/mL: 5 μg/ml; for inhibition at 25 µg/mL: 25 μg/ml. The source says: ^(b) Herpes Simplex Type II virus, strain 28382 in mink lung cells.
^(d) Plaque forming units (PFU) is a measure of the infectivity of th
^(e) Multiplicity of infection (MOI) 2.0 PFU/ml.

For series [19], the system named is Adenovirus Type 7, strain V1012. In words: Antiviral effect, Adenovirus 7 in Hep2 cells (plaque reduction). The class given is cell-based. An excerpt: ^(c) Adenovirus Type 7, strain V1012 in Hep2 cells.
The subject of series [20] is HL-60 cells. The experiment in a line: Growth inhibition and differentiation of HL-60 cells (nitroblue tetrazolium reduction). The class given is cell-based, human. An excerpt: (§1) The effect of this compound on differentiation, and nucleic acid and nucleotide biosynthesis were examined in the malignant human promyelocytic leukemia cell line, HL-60. […] During this exposure interval, pronounced differentiation to mature myeloid cells occurred wherein 95% of the cell population reduced nitroblue tetrazolium four days after exposure to 10^-7 M CPE-C.

In series [21] the test system is DNA synthesis / RNA synthesis in HL-60 cells. The experiment in a line: DNA and RNA synthesis in HL-60 cells. The class given is cell-based, human.
Text: as §1

In series [22] the test system is c-myc mRNA. In words: c-myc mRNA levels in HL-60 cells. Type of series: cell-based, human. Particulars: preceding induction of mature myeloid cells.
Text: as §1

The subject of series [23] is CTP, UTP, ATP, GTP levels in HL-60 cells. In words: Nucleotide (CTP, UTP, ATP, GTP) levels in HL-60 cells. Type of series: cell-based, human.
Text: as §1

For series [24], the system named is L1210 tumor cells. In words: Cytotoxicity against L1210 tumor cells in culture. The class given is cell-based. The conditions noted are these: Mus musculus, 48 hour exposure.
The mark [25] stands for this setting: read-out: % PFU Reduction, Polio III.
Setting [26] is: read-out: % PFU Reduction, Polio Type III.
Where [27] appears, read: mink lung cells, first value of cell, presumably MOI 2.0 PFU/ml, read-out: % PFU Reduction, Herpes Simplex II (first value).
The mark [28] stands for this setting: mink lung cells, second value of cell, read-out: % PFU Reduction, Herpes Simplex II (second value).

This is an account of results in patent publication US4968690A (priority 1989, dated 1990).

Read-outs that look alike come from different tables or passages of the source.

What is called Ki is a measure of affinity in units of concentration, obtained from inhibition or displacement. By IC50 is commonly meant the concentration that inhibits the measured activity by half.

In the case of `Nc1ncnc2c1ncn2[C@@H]1C=C(CO)[C@@H](O)[C@H]1O` [Neplanocin A, 9-[(1'R,2'S,3'R)-4-Hydroxymethyl-2',3'-dihydroxy-4-cyclopenten-1'-yl]adenine], the “toxicity to HL-60 cells” value in [1] (24 hrs. exposure, equimolar concentration, vs 3-deazaneplanocin) is “more toxic”. For the same compound, the “inhibition of AdoHcy-hydrolyzing enzyme (in words)” value in [2] is given as “potent inhibitor”. For the same compound, the phosphorylation entry in series [3] is given as “readily phosphorylated”. In addition, the side effects entry in [4] is recorded as “multiplicity of side effects including cytotoxicity”.

For `Nc1nccc2c1ncn2[C@@H]1C=C(CO)[C@@H](O)[C@H]1O` [3-Deazaneplanocin A, 4-Amino-1-[(1'R,2'S,3'R)-4'-hydroxymethyl-2',3'-dihydroxy-4'-cyclopenten-1'-yl]imidazo[4,5-c]pyridine], the “toxicity (in words)” value in series [1] (summary statement, compared with neplanocin A) is on record as “without the toxicity of neplanocin A”. Besides, the “change in cell viability” value in series [1] (two days of continuous exposure) is “Little or no change in cell viability”. In addition, the inhibition at 5 µg/mL in series [5] amounted to 14.2%; in series [6] (setting [25]), 44.4%; in series [7] it was 69.4%. Besides, the inhibition at 25 µg/mL in [5] worked out at 95%; in series [6] (setting [25]), 77.7%; in series [7], 77.2%. The inhibition at 50 µg/mL in series [5] came out at 98.9%; in series [6] (setting [25]), 83.3%; in series [7], 89.4%. The “toxicity to cells used to support virus growth” value (from here on “toxicity to cells used”) in series [8] is listed as “nontoxic”. In series [9], this compound came in with a Ki of 0.05 nM. Also, in series [9] (summary statement), the “inhibition of AdoHyc hydrolase (in words)” value was “particularly potent inhibitor”. Besides, the mode of inhibition entry in series [9] (with adenosine) is “competitive inhibitor”.

With `Nc1nccc2c1ncn2[C@@H]1O[C@H](CO)[C@@H](O)[C@H]1O` [3-deazaadenosine], the phosphorylation and deamination entry in series [3] was “resistance towards phosphorylation and deamination”.

For `O=c1ccn([C@@H]2C=C(CO)[C@@H](O)[C@H]2O)c(=O)[nH]1` [CPE-U], in [10], the “antiviral activity (in words), Dengue Type II” value is recorded as “good activity”; the inhibition at 5 µg/mL was 2%; the inhibition at 25 µg/mL stood at 91%; the inhibition at 50 µg/mL stood at 93%. In addition, in [11], the “general antiviral activity (in words)” value was “less effective as a general antiviral agent”. Besides, the “toxicity to cells used” value in [8] is “noncytotoxic”.

With `Nc1ncnc2c1ncn2[C@@H]1C[C@H](CO)[C@@H](O)[C@H]1O` [C-Ado], the “cytotoxicity to H.Ep.-2 cells in culture” value in series [12] is recorded as “highly cytotoxic”. For the same compound, the “cytotoxicity to L1210 cells in culture” value in [13] is reported as “highly cytotoxic”. Also, the “activity in in vivo mouse L1210 model” value in [14] is “inactivity”. The “cell proliferation of quiescent normal cells” value in [15] was “induced cell proliferation”. Moreover, the “growth in malignant cell lines” value in series [16] was “inhibited growth”. In [17], the “affinity for adenosine deaminase relative to adenosine” value was “hundredfold lower” and the “deamination by adenosine deaminase” value is “also deaminated by adenosine deaminase”.

In the case of `Nc1ccn([C@@H]2C=C(CO)[C@@H](O)[C@H]2O)c(=O)n1` [CPE-C, 4-amino-1-[(1'R,2'S,3'R)-4'-hydroxymethyl-4'-cyclopenten-1'-yl]-2(1H)pyrimidinone], the inhibition at 5 µg/mL in series [6] (setting [26]) was 73.2%; in series [18] (setting [27]), 98.7%; in [18] (setting [28]) it was 98.6%; in [19] (Human mastadenovirus B, HEp-2, 5 μg/ml, Hep2 cells, read-out: % PFU Reduction, Adenovirus 7) it was 70%; in series [10], 0%. Further, the inhibition at 25 µg/mL in [6] (setting [26]) came out at 82.1%; in series [18] (setting [27]), 95.7%; in series [18] (setting [28]) it was 99.5%; in [19] (Human mastadenovirus B, HEp-2, 25 μg/ml, Hep2 cells, read-out: % PFU Reduction, Adenovirus 7), 80%; in series [10], 2.5%. Moreover, the inhibition at 50 µg/mL was found to be 94.6% in [6] (setting [26]); 100% in [18] (50 μg/ml, mink lung cells, second value of cell, read-out: % PFU Reduction, Herpes Simplex II (second value)); 97.4% in series [18] (read-out: % PFU Reduction, Herpes Simplex II (first value)); 94% in [19] (Human mastadenovirus B, HEp-2, 50 μg/ml, Hep2 cells, read-out: % PFU Reduction, Adenovirus 7); 95% in series [10]. The “antiviral activity (in words), Herpes Simplex Type II” value in series [18] (non-cytotoxic concentrations) was “excellent activity”. For the same compound, the “antiviral activity (in words), Adenovirus Type 7” value in [19] (non-cytotoxic concentrations) is reported as “excellent activity”. Also, the “inhibition of cell growth” value in [20] (continuous exposure for 5 days, 10^-8 to 10^-6 M) was “progressive inhibition of cell growth”. The “differentiation to a non-malignant phenotype” value in [20] (continuous exposure for 5 days, 10^-8 to 10^-6 M, nitroblue tetrazolium reduction) is “differentiation to a non-malignant phenotype”. In addition, in series [20] (four days after exposure to 10^-7 M), the “cell population that reduced nitroblue tetrazolium” value is 95 % of the cell population. Also, the “activity as cancer cell differentiating agent (in words)” value in [20] (summary statement) was “potent cancer cell differentiating agent”. Moreover, the RNA synthesis result in [21] (10^-7 M, relative to DNA synthesis) is “inhibited to a lesser extent”. The activity at 0.1 µM in [21] (Homo sapiens, HL-60, 24 hrs. after exposure to 10^-7 M) came to 10%. Besides, the “c-myc mRNA levels” value in [22] is recorded as “inhibition of c-myc mRNA levels which was more pronounced than the reduction in total cellular RNA synthesis”. Moreover, the “level of CTP (in words)” value in series [23] (during CPE-C treatment) was “rapid and pronounced inhibition”. In [23] (during CPE-C treatment), the “level of UTP, ATP or GTP” value was “not of UTP, ATP or GTP”. Besides, the “CTP levels following drug removal” value in series [23] (following drug removal) is on record as “sustained reduction in CTP levels”. For the same compound, the “toxicity to cells used” value in series [8] is given as “noncytotoxic”.

3-deazaaristeromycin: the “inhibition of AdoHcy-hydrolyzing enzyme (in words)” value in series [2] is “very potent and specific inhibitor”. In addition, in [3], the phosphorylation and deamination result was “resistance towards phosphorylation and deamination”. Besides, in series [4], the side effects result is on record as “devoid of some of the undesirable side effects”.

On to `Nc1ncnc2c1nnn2[C@@H]1C=C(CO)[C@@H](O)[C@H]1O` [Formula 8-Aza-CPE-A, 7-Amino-3-[(1'R,2'S,3'R)-4'-hydroxymethyl-2',3'-dihydroxy-4'-cyclopenten-1'-yl]-3H-1,2,3-triazolo[4,5-d]pyrimidine], for which, in series [24], half-maximal inhibition (IC50) required 3000 nM.
